Consider 6 compounds from DBAASP.

≈ marks a conversion by molar mass, not a printed value.

Holding throughout (assay): ≥ marks a high value that may be exact or a test limit, other limits are often not marked, values filed in µg/mL are converted to µM
The test system of experiment [1] is Candida albicans ATCC 10231.
The test system of experiment [2] is Enterococcus faecalis PCM 2673.
Experiment [3] relates to Escherichia coli ATCC 25922.
For experiment [4], the system named is Pseudomonas aeruginosa ATCC 9027.
The test system of experiment [5] is Staphylococcus aureus ATCC 25923.
In experiment [6] the test system is Bacillus subtilis DSM 347.
For experiment [7], the system named is Escherichia coli DSM 1116.
Experiment [8] relates to Franconibacter helveticus DSM 18390.
The subject of experiment [9] is Staphylococcus xylosus DSM 20287.
For experiment [10], the system named is Acinetobacter baumannii ATCC 17978.
In experiment [11] the test system is Bacillus megaterium ATCC 10778.
The subject of experiment [12] is Bacillus subtilis ATCC 6633.
Experiment [13] relates to Candida albicans MDM8.
Experiment [14] deals with Candida tropicalis IOC 4560.
In experiment [15] the test system is Enterobacter cloacae beta-12.
In experiment [16] the test system is Escherichia coli NCTC 12923.
Experiment [17] has as its system Escherichia coli SBS 363.
Experiment [18] concerns Klebsiella pneumoniae NCTC 13368.
Experiment [19] deals with Micrococcus luteus A270.
The test system of experiment [20] is Pseudomonas aeruginosa NCIB 10421.
In experiment [21] the test system is Pseudomonas aeruginosa NCTC 13437.
Experiment [22] deals with Pseudomonas aeruginosa PAO1.
The test system of experiment [23] is Serratia marcescens ATCC 4112.
Experiment [24] deals with Staphylococcus aureus ATCC 29213.
Experiment [25] relates to Staphylococcus aureus ATCC 9144.
The subject of experiment [26] is Staphylococcus aureus USA 300.
Experiment [27] relates to Escherichia coli UB1005.
Experiment [28] has as its system Salmonella enterica subsp. enterica serovar Pullorum C79-13.
Experiment [29] deals with Salmonella enterica subsp. enterica serovar Typhi CMCC 50071.
Experiment [30] has as its system Salmonella enterica subsp. enterica serovar Typhimurium ATCC 14028.
Experiment [31] concerns Salmonella enterica subsp. enterica serovar Typhimurium C77-31.
Experiment [32] has as its system Staphylococcus epidermidis ATCC 12228.
For experiment [33], the system named is Acinetobacter baumannii ATCC 19606.
Experiment [34] concerns Candida albicans ATCC 90028.
The subject of experiment [35] is Candida parapsilosis ATCC 22019.
The subject of experiment [36] is Enterococcus faecalis ATCC 29212.
Experiment [37] deals with Klebsiella pneumoniae ATCC 13883.
For experiment [38], the system named is Listeria ivanovii Li 4pVS2.
In experiment [39] the test system is Pseudomonas aeruginosa ATCC 27853.
Experiment [40] deals with Streptococcus pyogenes ATCC 19615.
The subject of experiment [41] is Escherichia coli ATCC 8739.
Experiment [42] concerns Staphylococcus aureus HNCMO 112011.

For the compound `CC[C@H](C)[C@H](NC(=O)[C@H](CCCCN)NC(=O)[C@H](CCCCN)NC(=O)[C@@H](NC(=O)[C@@H](NC(=O)[C@H](CC(=O)O)NC(=O)[C@H](Cc1ccccc1)NC(=O)[C@H](C)NC(=O)CN)[C@@H](C)CC)[C@@H](C)CC)C(=O)N[C@@H](C)C(=O)N[C@@H](CCC(=O)O)C(=O)N[C@@H](CO)C(=O)N[C@@H](Cc1ccccc1)C(N)=O` [GAFDIIKKIAESF], the minimum inhibitory concentration (MIC) in experiment [1] was 178 µM (≈ 256 µg/mL); in experiment [2], no less than 356 µM; in [3], 178 µM (≈ 256 µg/mL); in experiment [4], 356 µM (≈ 512 µg/mL); in experiment [5], greater than 356 µM.

On to `CC[C@H](C)[C@H](N)C(=O)N[C@@H](C)C(=O)NCC(=O)N[C@@H](CCCCN)C(=O)N[C@H](C(=O)N[C@@H](C)C(=O)N[C@@H](CCCCN)C(=O)N[C@H](C(=O)N[C@@H](C)C(=O)NCC(=O)N[C@@H](CCCCN)C(=O)N[C@H](C(=O)N[C@@H](C)C(=O)N[C@@H](CCCCN)C(=O)N[C@H](C(=O)N[C@@H](C)C(=O)NCC(=O)N[C@@H](CCCCN)C(=O)N[C@H](C(=O)N[C@@H](C)C(N)=O)[C@@H](C)CC)[C@@H](C)CC)[C@@H](C)CC)[C@@H](C)CC)[C@@H](C)CC` [IAGKIAKIAGKIAKIAGKIA], for which the MIC amounted to 1.46 µM (≈ 2.83 µg/mL) in [6], 4.13 µM (≈ 8 µg/mL) in [7], 2.92 µM (≈ 5.65 µg/mL) in [8] and 2.07 µM (≈ 4 µg/mL) in experiment [9].

`CC[C@H](C)[C@H](N)C(=O)N[C@@H](CC(C)C)C(=O)N[C@@H](CCCCN)C(=O)N[C@@H](CCCCN)C(=O)N[C@H](C(=O)N[C@@H](Cc1c[nH]c2ccccc12)C(=O)N[C@@H](CCC(=O)O)C(=O)NCC(=O)N[C@H](C(=O)N[C@@H](CCCCN)C(=O)N[C@@H](CO)C(=O)N[C@@H](CC(C)C)C(=O)N[C@@H](Cc1ccccc1)C(N)=O)[C@@H](C)CC)[C@@H](C)CC` [ILKKIWEGIKSLF]: the MIC in experiment [10] is 2.54 µM (≈ 4 µg/mL); in experiment [11], 0.78 µM (≈ 1.23 µg/mL); in [12] it was 0.78 µM (≈ 1.23 µg/mL); in experiment [13], 1.56 µM (≈ 2.46 µg/mL); in experiment [14], 0.78 µM (≈ 1.23 µg/mL); in experiment [15], 3.13 µM (≈ 4.93 µg/mL). For the same compound, the minimum inhibitory concentration (MIC) in [16] was 5.08 µM (≈ 8 µg/mL); in experiment [17], 0.78 µM (≈ 1.23 µg/mL); in [18] it was 10.2 µM (≈ 16 µg/mL); in [19], 0.78 µM (≈ 1.23 µg/mL); in [20], 6.25 µM (≈ 9.84 µg/mL); in [21] it was no less than 40.6 µM. In addition, the MIC is greater than 81.3 µM in [22]; 0.36 µM (≈ 0.567 µg/mL) in experiment [23]; 1.56 µM (≈ 2.46 µg/mL) in experiment [24]; 5.08 µM (≈ 8 µg/mL) in experiment [25]; 10.2 µM (≈ 16 µg/mL) in experiment [26].

As to `CSCC[C@H](NC(=O)[C@H](CCCN=C(N)N)NC(=O)[C@H](Cc1c[nH]c2ccccc12)NC(=O)[C@H](CCC(N)=O)NC(=O)[C@H](Cc1c[nH]c2ccccc12)NC(=O)[C@H](CCCN=C(N)N)NC(=O)[C@H](CCCN=C(N)N)NC(=O)[C@H](CS)NC(=O)[C@@H](N)CCCCN)C(=O)N[C@@H](CCCCN)C(=O)N[C@@H](CCCCN)C(N)=O` [KCRRWQWRMKK], the MIC in experiment [27] was no less than 128 µM; in [28] it was no less than 128 µM; in experiment [29] it was no less than 128 µM; in experiment [30], greater than 128 µM; in [31] it was no less than 128 µM; in experiment [5] it was 128 µM (≈ 205 µg/mL). Besides, the MIC in experiment [24] and in experiment [32] was greater than 128 µM in each case.

With `CC[C@H](C)[C@H](NC(=O)[C@H](CCCN=C(N)N)NC(=O)[C@H](Cc1ccc(O)cc1)NC(=O)CNC(=O)[C@H](Cc1ccc(O)cc1)NC(=O)[C@H](CCCN=C(N)N)NC(=O)[C@H](CC(C)C)NC(=O)[C@H](C)NC(=O)[C@H](CCC(N)=O)NC(=O)[C@H](CCC(=O)O)NC(=O)[C@@H](NC(=O)[C@H](CCC(N)=O)NC(=O)[C@H](CCCN=C(N)N)NC(=O)[C@H](CCSC)NC(=O)[C@H](Cc1ccc(O)cc1)NC(=O)[C@H](CCC(N)=O)NC(=O)[C@@H](N)CCCN=C(N)N)[C@@H](C)CC)C(=O)N[C@@H](CO)C(=O)N[C@@H](CCCN=C(N)N)C(=O)N[C@@H](CCCN=C(N)N)C(N)=O` [RQYMRQIEQALRYGYRISRR], the MIC in experiment [33] was 6.25 µM (≈ 16.5 µg/mL); in experiment [34], no less than 200 µM; in experiment [35] it was no less than 50 µM; in experiment [36] it was greater than 100 µM; in [3] it was 6.25 µM (≈ 16.5 µg/mL); in experiment [37], no less than 80 µM. Moreover, the MIC in experiment [38] was no less than 50 µM; in experiment [39] it was 25 µM (≈ 66.1 µg/mL); in [5] it was 100 µM (≈ 264 µg/mL); in experiment [40], no less than 50 µM.

As to `CC(C)C[C@H](NC(=O)[C@@H]1CCCN1C(=O)[C@H](CCCN=C(N)N)NC(=O)[C@H](CCCN=C(N)N)NC(=O)[C@H](CS)NC(=O)[C@H](CCC(N)=O)NC(=O)[C@@H](N)CCC(N)=O)C(=O)N[C@@H](Cc1ccc(O)cc1)C(=O)N[C@@H](CS)C(=O)N[C@@H](CCCN=C(N)N)C(=O)N[C@@H](CCCN=C(N)N)C(=O)N[C@@H](CCCN=C(N)N)C(=O)O` [QQCRRPLYCRRR], the MIC in [10], in experiment [41] and in [42] was 25 µM (≈ 40.9 µg/mL) in each case.
